# Measured values: patent US4522813A, “Cyclic hexapeptide somatostatin analogs” (Merck & Co., Inc., priority 1983, dated 1985)
# Tests used:
# portal vein glucagon = test: Decrease of portal vein glucagon levels in anesthetized rats; format: in vivo, rat; conditions: multiple or fraction of the effect of somatostatin (=1), fiducial limits in parentheses, external jugular vein, portal vein blood after 5 minutes
# Protocol: (§1) Analogs of somatostatin were compared to somatostatin in their ability to decrease the levels of portal vein glucagon and insulin in anesthetized rats. Male Sprague-Dawley rats (Charles River CD) weighing 160-200 g were anesthetized with urethane (150 mg/100 g of body weight; Aldrich). Saline or peptides were administered via the external jugular vein. After 5 minutes, the portal vein was exposed, and blood was collected via syringe containing 3 mg of EDTA and placed in chilled tubes containing 100 μl of Trasylol (FBA Pharmaceuticals) for subsequent hormone analysis. Plasma levels of glucagon were determined by the method of Faloona and Unger, Methods of Hormone Radioimmunoassay, Jaffe and Behrman (Eds), Academic Press, New York, Vol, II, pp. 257-527 (1976), utilizing glucagon antisera 30K obtained from R. Unger (Dallas, TX). Plasma levels of insulin were determined by a modification of the procedure of Herbert et al., J. Clin. Endocrinol. Metab., 25, 1375-1384 (1965).
# [1] = system: pentagastrin evoked gastric secretion; test: Inhibition of pentagastrin evoked gastric secretion in the chronic fistula dog; format: in vivo; set-up: dose or concentration left out as unconfirmed; conditions: infusion 0-60 min., relative to placebo trial; for Gastric Secretion & Inhibition, Acid Concentration 0-30 / Gastric Secretion & Inhibition, Vol. 0-30: interval 0-30 min; for Gastric Secretion & Inhibition, Acid Concentration 30-60 / Gastric Secretion & Inhibition, Vol. 30-60: interval 30-60 min; for Gastric Secretion & Inhibition, Acid Concentration 60-90 / Gastric Secretion & Inhibition, Vol. 60-90: interval 60-90 min; for Gastric Secretion & Inhibition, Acid Concentration 90-120 / Gastric Secretion & Inhibition, Vol. 90-120: interval 90-120 min
# Protocol: The gastric effects of the instant cyclichexapeptide analogs of somatostatin are determined by the following procedure.
# Compounds were tested for their ability to inhibit pentagastrin evoked gastric secretion in the chronic fistula dog. Female beagle dogs with a chronic gastric fistula were given pentagastrin (2.5 μg./kg./hour, i.v. from -60 to 120 min.) and gastric outputs were collected via the fistula cannula. Samples were analyzed at 30 minute intervals for volume (Ml.) and titratable acid (mEq/L) (Titration to pH 7 with 0.01N NaOH); total acid output (mEq) was calculated as the production of output volume and acid concentration. Test compounds were infused at a constant rate from 0 to 60 minutes. Data have been expressed as percent change of total acid output relative to a placebo trial in the same animals.
# portal vein insulin = test: Decrease of portal vein insulin levels in anesthetized rats; format: in vivo, rat; conditions: multiple or fraction of the effect of somatostatin (=1), fiducial limits in parentheses, external jugular vein, portal vein blood after 5 minutes
# Protocol: as §1
# [2] = system: growth hormone release from rat pituitary cells; test: In vitro inhibition of growth hormone release, cultured rat pituitary cells; format: cell-based; conditions: multiple or fraction of the effect of somatostatin (=1), fiducial limits in parentheses, 4 hours incubation
# Protocol: The instant cyclic hexapeptide analogs of somatostatin are tested and compared with the effects of somatostatin in an in vitro test for the inhibition of growth hormone. The test is described as follows:
# "Rat pituitaries were isolated according to the procedures of Vale and Grant "In vitro Pituitary Hormone Secretion Assay for Hypophysiotropic Substances" in Methods in Enzymology, Vol. XXXVII, eds. O'Malley, B. W. and Hardman, J. G. (Academic Press, Inc., New York) pp. 5-93 (1975).
# After 4 days in culture, the cells were washed and incubated for 4 hours in Dulbecco-modified Eagle's medium in the presence or absence of graded doses of each analog or somatostatin. The medium was then collected for subsequent growth hormone determination by a double antibody radioimmunoassay for rat growth hormone."
Compound,Glucagon Inhibition (portal vein glucagon),"Gastric Secretion & Inhibition, Acid Concentration 0-30 [1]","Gastric Secretion & Inhibition, Vol. 0-30 [1]","Gastric Secretion & Inhibition, Acid Concentration 30-60 [1]","Gastric Secretion & Inhibition, Vol. 30-60 [1]","Gastric Secretion & Inhibition, Acid Concentration 60-90 [1]","Gastric Secretion & Inhibition, Vol. 60-90 [1]","Gastric Secretion & Inhibition, Acid Concentration 90-120 [1]","Gastric Secretion & Inhibition, Vol. 90-120 [1]",Insulin Inhibition (portal vein insulin),Growth Hormone Release Inhibition [2]
C[C@H](N)C(=O)NCC(=O)N[C@H]1CSSC[C@@H](C(=O)O)NC(=O)[C@H](CO)NC(=O)[C@H]([C@@H](C)O)NC(=O)[C@H](Cc2ccccc2)NC(=O)[C@H]([C@@H](C)O)NC(=O)[C@H](CCCCN)NC(=O)[C@H](Cc2c[nH]c3ccccc23)NC(=O)[C@H](Cc2ccccc2)NC(=O)[C@H](Cc2ccccc2)NC(=O)[C@H](CC(N)=O)NC(=O)[C@H](CCCCN)NC1=O [Somatostatin],1,16%,85%,77%,97%,61%,81%,14%,37%,–,–
Cyclo--(Pro--Phe--D-Trp--cis-AChxAla--Thr--Phe),"2.2 (1.1, 4.7)",4%,75%,19%,82%,13%,20%,5%,2%,"1.4 (0.7, 2.7)","0.5 (0.3, 0.6)"
Cyclo--(Pro--Phe--D-Trp--t-D-AChxGly--Thr--Phe),0.07,–,–,–,–,–,–,–,–,0.07,0.11
